Data published in the supplement of paper PMC10307832.

Columns and labels:
Assay in all cases: relative viability (nuclei count vs DMSO), 5 days (fraction); higher = more cells survive
BI-D1870 + Luminespib = compound: CC(C)CCN1c2nc(Nc3cc(F)c(O)c(F)c3)ncc2N(C)C(=O)C1C [BI-D1870] + CCNC(=O)c1noc(-c2cc(C(C)C)c(O)cc2O)c1-c1ccc(CN2CCOCC2)cc1 [Luminespib] (partner 0.01 µM)
How it was run: (§1)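 Lung cancer cell lines in 1536-well plates were dosed by pin tool the day after seeding, either with one drug alone or with a fixed anchor-drug dose plus five library-drug doses (not always all listed) in √10 steps. After 5 days, cells were fixed and their nuclei stained in one step (final 0.05% Triton X-100, 1% formaldehyde, 1 ug/ml Hoechst), then counted on 4× images. Relative viability is the nuclei count in treated wells divided by that in vehicle wells. Values are medians of duplicate plates.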

Zebularine + Palbociclib = compound: O=c1ncccn1[C@@H]1O[C@H](CO)[C@@H](O)[C@H]1O [Zebularine] + CC(=O)c1c(C)c2cnc(Nc3ccc(N4CCNCC4)cn3)nc2n(C2CCCC2)c1=O [Palbociclib] (partner 0.5 µM)
How it was run: as §1

BI-D1870 + Palbociclib = compound: CC(C)CCN1c2nc(Nc3cc(F)c(O)c(F)c3)ncc2N(C)C(=O)C1C [BI-D1870] + CC(=O)c1c(C)c2cnc(Nc3ccc(N4CCNCC4)cn3)nc2n(C2CCCC2)c1=O [Palbociclib] (partner 0.5 µM)
How it was run: as §1

BI-D1870 + AZD7762 = compound: CC(C)CCN1c2nc(Nc3cc(F)c(O)c(F)c3)ncc2N(C)C(=O)C1C [BI-D1870] + NC(=O)Nc1cc(-c2cccc(F)c2)sc1C(=O)N[C@H]1CCCNC1 [AZD7762] (partner 0.2 µM)
How it was run: as §1

Cell Line | relative viability (BI-D1870 + Luminespib; first compound 0.04 µM) | relative viability (BI-D1870 + Luminespib; first compound 0.1265 µM) | relative viability (BI-D1870 + Luminespib; first compound 0.4 µM) | relative viability (BI-D1870 + Luminespib; first compound 1.265 µM) | relative viability (BI-D1870 + Luminespib; first compound 4 µM) | relative viability (Zebularine + Palbociclib; first compound 1 µM) | relative viability (Zebularine + Palbociclib; first compound 3.162 µM) | relative viability (Zebularine + Palbociclib; first compound 10 µM) | relative viability (Zebularine + Palbociclib; first compound 31.62 µM) | relative viability (Zebularine + Palbociclib; first compound 100 µM) | relative viability (BI-D1870 + Palbociclib; first compound 0.04 µM) | relative viability (BI-D1870 + Palbociclib; first compound 0.1265 µM) | relative viability (BI-D1870 + Palbociclib; first compound 0.4 µM) | relative viability (BI-D1870 + Palbociclib; first compound 1.265 µM) | relative viability (BI-D1870 + Palbociclib; first compound 4 µM) | relative viability (BI-D1870 + AZD7762; first compound 0.04 µM) | relative viability (BI-D1870 + AZD7762; first compound 0.1265 µM) | relative viability (BI-D1870 + AZD7762; first compound 0.4 µM) | relative viability (BI-D1870 + AZD7762; first compound 1.265 µM) | relative viability (BI-D1870 + AZD7762; first compound 4 µM)
COR-L23 | 0.812 | 0.524 | 0.587 | 0.875 | 0.504 | 0.314 | 0.286 | 0.176 | 0.224 | 0.146 | 0.281 | 0.24 | 0.315 | 0.257 | 0.278 | – | – | – | – | –
ABC-1 | 0.581 | 0.776 | – | 0.512 | 0.371 | 0.741 | 0.485 | 0.635 | 0.589 | 0.471 | 0.973 | 0.708 | 0.667 | 0.849 | 0.679 | 0.805 | 0.82 | 0.796 | 0.791 | 0.895
NCI-H522 | 0.929 | 1.05 | 0.989 | 1.24 | 1.29 | 0.923 | 0.942 | 0.926 | 0.827 | 0.765 | 1.03 | 1.06 | 0.943 | 0.975 | 0.788 | 0.84 | 0.845 | 0.851 | 0.935 | 0.911
NCI-H838 | 0.309 | 0.343 | 0.236 | 0.295 | 0.319 | 0.222 | 0.257 | 0.223 | 0.238 | 0.219 | 0.243 | 0.236 | 0.232 | 0.262 | 0.209 | 0.994 | 0.909 | 0.893 | 1.04 | 0.947
SW 900 | 0.193 | 0.192 | 0.18 | 0.175 | 0.158 | 0.503 | 0.484 | – | 0.669 | 0.527 | 0.697 | 0.478 | 0.511 | 0.536 | 0.517 | 0.81 | 0.589 | 0.526 | 0.661 | 0.594
A-427 | 1.06 | 0.764 | 0.77 | 1.11 | 0.879 | 0.581 | 0.542 | 0.472 | 0.385 | 0.296 | 0.59 | 0.488 | 0.532 | 0.555 | 0.495 | 0.86 | 0.717 | 0.848 | 1.01 | 0.796
NCI-H1792 | 0.505 | 0.432 | 0.393 | 0.592 | 0.344 | 0.639 | 0.732 | 0.282 | 0.401 | 0.423 | 0.635 | 0.613 | 0.679 | 0.719 | 0.479 | 0.728 | 0.599 | 0.72 | 0.72 | 0.527
NCI-H1703 | – | – | – | – | – | – | – | – | – | – | – | – | – | – | – | 0.143 | – | 0.122 | 0.142 | 0.116
SK-LU-1 | 0.178 | 0.17 | 0.207 | 0.224 | 0.179 | 0.417 | 0.408 | 0.347 | 0.38 | 0.356 | 0.384 | 0.361 | 0.329 | 0.404 | 0.318 | – | – | – | – | –
